From patent US5017596A, “Arylpyrazolylcarbinol compounds with analgesic activity” (Laboratorios del Dr. Esteve, S.A., priority 1987, dated 1991)
Where two headings read alike, the source gives them in different places.

Legend:
Assay type in all cases: in vivo, Swiss male mice
Settings in all cases: Mus musculus, po, read-out: % inhibition of contortions
[1] = tested on: contortions induced by acetic acid in mice; test: Analgesic activity: inhibition of the contortions induced by acetic acid in mice (Koster's method)
Description: Swiss male mice weighing 17-22 grams are used. Groups containing a minimum of 4 animals for each dose are used.
Each product is suspended or dissolved in gum arabic at a concentration of 5% (w/v) in distilled water and is administered orally, at a dose of 160 mg/kg, 60 minutes before the injection of acetic acid.

[2] = tested on: contortions induced by phenylbenzoquinone in mice; test: Analgesic activity: inhibition of the contortions induced by phenylbenzoquinone in mice (Siegmund's method)
Description: Analgesic activity: Inhibition of the contortions induced by phenylbenzoquinone in mice--Siegmund's method (E. Siegmund, R. Cadmus and G. Lu, Proc Soc. Exp. Biol. Med., 95, 729 (1957))
(§1) Swiss male mice weighing 17-22 grams are used. Groups containing a minimum of 4 animals are used.
Contortions are induced by the intraperitoneal injection of phenyl-p-benzoquinone (25 ml/kg of a 0.02% solution in a solution of ethanol at a concentration of 5% (v/v) in distilled water, with Evans blue in a proportion of 0.1% (w/v)) and are counted for 15 minutes as from the time of injection. Each product is suspended or dissolved in gum arabic at a concentration of 5% (w/v) in distilled water and is administered orally, at a dose of 160 mg/kg, 60 minutes before the injection of phenylbenzoquinone. The inhibition of contortions due to each product is determined, taking as the reference the contortions in a group of control animals to which only the vehicle is administered orally 60 minutes before the phenylbenzoquinone.

[3] = tested on: contortions induced by acetylcholine bromide in mice; test: Analgesic activity: inhibition of the contortions induced by acetylcholine bromide in mice (Collier's method)
Description: as §1
Contortions are induced by the intraperitoneal injection of acetylcholine bromide (7.2 mg/kg, dissolved in physiological serum, a volume of 10 ml/kg of weight being administered) at the start of the experiment and the number of contortions is counted for 5 minutes, this being the reference number for each animal (mice with fewer than 2 contortions are rejected). Immediately afterwards, the test products are administered orally, at a dose of 160 mg/kg, in the form of a suspension or solution in gum arabic at a concentration of 5% (w/v) in distilled water. 40 and 120 minutes after the treatment, acetylcholine bromide is administered again, the contortions are noted and the readings at 40 and 120 minutes are evaluated, taking the contortions of the initial reading as the reference.

[4] = 160 mg/kg, administered orally 60 minutes before acetic acid i.p., contortions counted for 15 minutes
[5] = 160 mg/kg, administered orally 60 minutes before phenylbenzoquinone i.p., contortions counted for 15 minutes
[6] = 160 mg/kg, administered orally, acetylcholine bromide 7.2 mg/kg i.p., mean of the values at 40 and 120 minutes

| SMILES | inhibition in vivo at 160 mg/kg [2, 5] [%] | inhibition in vivo at 160 mg/kg [3, 6] [%] | other results |
| --- | --- | --- | --- |
| Cn1ccnc1C(C)(O)c1cccc(C(F)(F)F)c1 (stereo not drawn) [Example 128] | 67.5 | 82.5 | inhibition in vivo at 160 mg/kg [1, 4]: 52.5% |
| CN(C)CCCOC(C)(c1ccc(Cl)cc1)c1nccn1C (stereo not drawn) [Example 59, α-(4-chlorophenyl)-α-methyl-1-methyl-0-(3-dimethylaminopropyl)-1H-imidazole-2-methanol] | – | 100 | inhibition in vivo at 160 mg/kg [1, 4]: 87.5% |
| Cn1nccc1C(OCCN1CCCC1)c1ccccc1 (stereo not drawn) [Example 34] | – | – | inhibition in vivo at 160 mg/kg [2]: 40% |
| CN(C)CCCOC(c1cccc(C(F)(F)F)c1)c1nccn1C (stereo not drawn) [Example 73] | – | 100 | – |
| Cn1ccnc1C(O)c1ccc(C(F)(F)F)cc1 (stereo not drawn) [Example 111] | – | 87.5 | – |
| CN(C)CCCn1ccnc1C(C)(O)c1ccc(Cl)cc1 (stereo not drawn) [Example 146] | 28.5 | – | – |
| CN(C)CCCOC(C)(c1ccc(Cl)c(Cl)c1)c1nccn1C (stereo not drawn) [Example 86] | 98.8 | – | inhibition in vivo at 160 mg/kg [1, 4]: 50% |
| CCCCn1nccc1C(OCCN(C)C)c1ccccc1 (stereo not drawn) [Example 27] | 40 | – | – |
| CCCCn1ccnc1C(O)c1ccc(Cl)cc1Cl (stereo not drawn) [Example 115] | 39.5 | – | inhibition in vivo at 160 mg/kg [1, 4]: 50% |
| COc1cc(C(OCCN(C)C)c2ccnn2C)cc(OC)c1OC (stereo not drawn) [Example 33] | 35 | – | – |
| CCCCn1ccnc1C(O)(CCCC)c1ccc(Cl)cc1Cl (stereo not drawn) [Example 144] | – | 88.8 | – |
| COc1ccc(C(OCCCN(C)C)c2nccn2C)cc1 (stereo not drawn) [Example 75] | – | 100 | – |
| CN(C)CCOC(C)(c1ccccc1)c1ccnn1C (stereo not drawn) [Example 32] | 37.5 | – | – |
| CCCCn1nccc1C(C)(OCCN(C)C)c1ccc(Cl)cc1 (stereo not drawn) [Example 30] | 27.5 | – | – |
| CN(C)CCCOC(c1ccc(Cl)c(Cl)c1)c1nccn1C (stereo not drawn) [Example 87] | 77.5 | – | – |
| CCCCn1ccnc1C(O)c1cc(OC)c(OC)c(OC)c1 (stereo not drawn) [Example 117] | – | 60 | – |
| CN(C)CCOC(C)(c1ccccc1Cl)c1nccn1C (stereo not drawn) [Example 5] | – | 100 | – |
| CN(C)CCOC(C)(c1ccc(Cl)c(Cl)c1)c1nccn1C (stereo not drawn) [Example 18] | 82.5 | – | – |
| Cc1cc(C(OCCN(C)C)c2ccccc2)n(C)n1 (stereo not drawn) [Example 39] | 37.5 | – | – |
| CN(C)CCCOC(c1ccc(Cl)cc1)(c1nccn1C)C1CCN(C)CC1 (stereo not drawn) [Example 91] | 57.5 | – | – |
| CCCCC(OCCCN(C)C)(c1cccc(C(F)(F)F)c1)c1nccn1C (stereo not drawn) [Example 76] | – | 100 | – |

| SMILES | inhibition in vivo at 160 mg/kg [2, 5] [%] | inhibition in vivo at 160 mg/kg [3, 6] [%] | other results |
| --- | --- | --- | --- |
| CN(C)CCCOC(c1ccc(Cl)cc1)c1nccn1C (stereo not drawn) [Example 70] | – | 100 | – |
| COc1ccc(C(C)(OCCCN(C)C)c2nccn2C)cc1 (stereo not drawn) [Example 69] | – | 95 | – |
| CC(=O)Oc1ccccc1C(=O)O [Acetylsalicylic acid, reference compound] | – | – | inhibition in vivo at 160 mg/kg [1]: 72.5%; inhibition in vivo at 160 mg/kg [2]: 75%; inhibition in vivo at 160 mg/kg [3]: 92.5% |
| Cn1ccnc1C(C)(O)c1ccc(Cl)cc1 (stereo not drawn) [Example 121, α-(4-chlorophenyl)-α-methyl-1-methyl-1H-imidazole-2-methanol] | – | 70 | – |
| COc1cc(C(C)(OCCCN(C)C)c2nccn2C)cc(OC)c1OC (stereo not drawn) [Example 68] | – | 95 | – |
| CCCCn1ccnc1C(OCCN(C)C)c1ccc(C(F)(F)F)cc1 (stereo not drawn) [Example 14] | – | 85 | – |
| CN(C)CCCOC(C)(c1ccc(F)cc1)c1nccn1C (stereo not drawn) [Example 64] | – | 100 | inhibition in vivo at 160 mg/kg [1, 4]: 50% |
| Cn1ccnc1C(C)(OCCN1CCCC1)c1cccc(Cl)c1 (stereo not drawn) [Example 12] | – | – | inhibition in vivo at 160 mg/kg [1, 4]: 82.5% |
| CCCCn1ccnc1C(O)c1ccc(Cl)cc1 (stereo not drawn) [Example 116] | 27.5 | – | – |
| CN(C)CCOC(C)(c1ccc(F)cc1)c1nccn1C (stereo not drawn) [Example 6] | – | 75 | inhibition in vivo at 160 mg/kg [1, 4]: 50% |
| Cn1ccnc1C(O)c1cccc(C(F)(F)F)c1 (stereo not drawn) [Example 110, 1-methyl-α-(3-trifluoromethylphenyl)-1H-imidazole-2-methanol] | – | 57.5 | – |
| CN(C)CCOC(c1ccccc1)c1ccnn1C (stereo not drawn) [Example 31] | 80 | – | inhibition in vivo at 160 mg/kg [1, 4]: 80% |
| CN(C)CCCOC(C)(c1ccccc1)c1ccnn1C (stereo not drawn) [Example 95] | 45 | – | – |
| CN(C)CCOC(C)(c1cccc(Cl)c1)c1nccn1C (stereo not drawn) [Example 8] | – | 95 | – |
| CN(C)CCCOC(c1ccc(C(F)(F)F)cc1)c1nccn1C (stereo not drawn) [Example 74] | – | 100 | – |
| Cn1ccnc1C(OCCCN1CCCCC1)c1ccc(Cl)cc1 (stereo not drawn) [Example 82] | – | 83.8 | – |
| CN(C)CCOC(C)(c1ccc(Cl)cc1)c1nccn1CCN1CCCCC1 (stereo not drawn) [Example 20] | 25 | – | – |
| CN(C)CCCOC(C)(c1ccc(C(F)(F)F)cc1)c1nccn1C (stereo not drawn) [Example 72] | – | 100 | – |
| CN(C)CCOC(C)(c1ccc(Cl)cc1)c1nccn1C (stereo not drawn) [Example 2] | – | 100 | – |
| Cn1ccnc1C(C)(O)c1ccccc1Cl (stereo not drawn) [Example 126] | – | 65 | – |
| CC(=O)Nc1ccc(O)cc1 [Paracetamol, reference compound] | 47.5 | 72.5 | inhibition in vivo at 160 mg/kg [1, 4]: 20% |

| SMILES | inhibition in vivo at 160 mg/kg [2, 5] [%] | inhibition in vivo at 160 mg/kg [3, 6] [%] | other results |
| --- | --- | --- | --- |
| CN(C)CCOC(c1ccc(Cl)c(Cl)c1)c1nccn1C (stereo not drawn) [Example 19] | 87.5 | – | – |
| CN(C)CCCOC(c1ccccc1)c1ccnn1C (stereo not drawn) [Example 94] | 40 | – | – |
| COc1cc(C(C)(O)c2nccn2C)cc(OC)c1OC (stereo not drawn) [Example 137] | – | 85 | – |
| CCC(OCCCN(C)C)(c1ccc(Cl)cc1)c1nccn1C (stereo not drawn) [Example 61] | – | 97.5 | – |
| CN1CCOC(c2ccccc2)c2ccccc2C1 (stereo not drawn) [Nefopam, reference compound] | 97.5 | 100 | inhibition in vivo at 160 mg/kg [1, 4]: 98% |
| CN(C)CCCOC(c1cccc(Cl)c1)c1nccn1C (stereo not drawn) [Example 60] | – | 82.5 | inhibition in vivo at 160 mg/kg [1, 4]: 62.5% |
| CCCCC(O)(c1ccccc1Cl)c1nccn1C (stereo not drawn) [Example 127] | – | 70 | – |
| COc1ccc(C(C)(O)c2nccn2C)cc1 (stereo not drawn) [Example 133] | – | 52.5 | – |
| CN(C)CCOC(c1cccc(Cl)c1)c1nccn1C (stereo not drawn) [Example 4] | – | 95 | – |
| CCCCC(O)(c1cccc(Cl)c1)c1nccn1C (stereo not drawn) [Example 119] | – | 90 | inhibition in vivo at 160 mg/kg [1, 4]: 45% |
| CCCCn1ccnc1C(O)(CCCC)c1ccccc1Cl (stereo not drawn) [Example 142] | – | 80 | – |
| CCCCn1ccnc1C(C)(OCCCN(C)C)c1ccc(Cl)cc1 (stereo not drawn) [Example 77] | – | 100 | – |
| CCCCn1ccnc1C(O)(CCCC)c1cc(OC)c(OC)c(OC)c1 (stereo not drawn) [Example 141] | – | 62.5 | – |
| CN(C)CCOC(C)(c1cccc(C(F)(F)F)c1)c1nccn1C (stereo not drawn) [Example 7] | – | 95 | inhibition in vivo at 160 mg/kg [1, 4]: 67.5% |
| CCCCC(OCCN(C)C)(c1cccc(Cl)c1)c1nccn1C (stereo not drawn) [Example 9] | – | 97.5 | – |
| Cc1cc(C(C)(OCCN(C)C)c2ccccc2)n(C)n1 (stereo not drawn) [Example 38] | 42.5 | – | – |
| Cn1ccnc1C(C)(OCCCN1CCCCC1)c1ccc(C(F)(F)F)cc1 (stereo not drawn) [Example 83] | – | 88.3 | – |
| Cn1ccnc1C(O)c1ccc(Cl)c(Cl)c1 (stereo not drawn) [Example 113] | 57.5 | – | – |
| CN(C)CCOC(c1ccccc1)c1c(Br)cnn1C (stereo not drawn) [Example 37] | 77.5 | – | inhibition in vivo at 160 mg/kg [1, 4]: 72.5% |
| CCCCC(O)(c1cccc(C(F)(F)F)c1)c1nccn1C (stereo not drawn) [Example 129] | – | 55 | – |
| Cn1ccnc1C(O)c1ccc(Cl)cc1 (stereo not drawn) [Example 107] | – | 57.5 | – |
